Measured values: patent publication US20260308128A1, “BETA-ELEMENE DERIVATIVE CONTAINING PHOTOAFFINITY GROUP DIAZIRINE, AND PREPARATION METHOD AND USE THEREOF AS PHOTOAFFINITY MOLECULAR PROBE” (HANGZHOU NORMAL UNIVERSITY, priority 2022, published 2026)
Read-outs that look alike come from different tables or passages of the source.

Tests used:
[1] = tested on: Huh1 human liver cancer cells; assay: Tumor cell proliferation inhibition (CCK-8), Huh1; type: cell-based; conditions: for IC50: Homo sapiens, read-out: IC50 Huh1; for IC50 times lower than that of β-elemene: human Huh1 liver cancer cells, versus β-elemene
Experimental: (§1) Human liver cancer cell Huh1, human lung cancer cell A549, and human brain glioma cell U87-MG.
(§2) • (1) A cell laboratory was routinely disinfected and a clean bench was subjected to ultraviolet radiation for more than 30 min. • (2) A culture solution (DMEM) and 0.25% trypsin were preheated in a constant-temperature water bath at 37° C. for 20 min, and dimethyl sulfoxide (DMSO) was refrigerated in a refrigerator at 4° C. for 30 min. • (3) A cryopreserved tube was taken out of a liquid nitrogen storage tank, immediately placed in a 37° C. water bath and shaken rapidly until s cryopreserved liquid was completely thawed. • (4) A cell suspension was transferred into a centrifuge tube, the culture solution was slowly added thereto, and the centrifuge tube was transferred into a centrifuge for centrifugation (120×g, 5 min). • (5) A cell concentration was adjusted with the culture solution, and resulting adjusted cells were shaken well, and placed in a 37° C., 5% CO2 incubator for culture. • (6) After the cells had attached for 24 h, the culture solution thereof was changed. When a cell density reached 80% to 90%, the cells were digested with trypsin and then subcultured.
(§3) • (1) A A549 cell suspension was adjusted to 5×10^4 cells/mL using a DMEM culture medium. […] The cells were cultured in the incubator for 1 h and an absorbance at 450 nm was measured using a THERMO FISHER Multiskan FC microplate reader. • (5) IBM SPSS Statistics 22.0 software was used to plot an S-shaped dose-survival curve using a non-linear regression model, and a survival rate and an inhibition rate were calculated using the following formulas:
(§4) [formula] [formula] • As: absorbance of the experimental well (culture medium containing cells, CCK-8, and the drug to be tested) • Ac: absorbance of the control well (culture medium containing cells, CCK-8, and no drug to be tested) • Ab: absorbance of the blank wells (culture medium without cells and drug to be tested, CCK-8)
(§5) According to the above experimental method, CCK-8 was used to determine the proliferation inhibitory effects of the isolated and purified β-elemene monomer, elemene photoaffinity probe and control compounds on three human cancer cells, namely A549 human non-small cell lung cancer cells, U87-MG human malignant glioma cells, and Huh1 human liver cancer cells.

[2] = tested on: A549 human non-small cell lung cancer cells; assay: Tumor cell proliferation inhibition (CCK-8), A549; type: cell-based; conditions: for IC50: Homo sapiens, read-out: IC50 A549; for IC50 times lower than that of β-elemene: human A549 lung cancer cells, versus β-elemene
Experimental: as §1, §2, §3, §4, §5

[3] = tested on: U87-MG human malignant glioma cells; assay: Tumor cell proliferation inhibition (CCK-8), U87-MG; type: cell-based; conditions: for IC50: Homo sapiens, U-87 MG, 48 h, read-out: IC50 U87; for IC50 times lower than that of β-elemene: human U87-MG malignant glioma cells, versus β-elemene
Experimental: as §1, §2, §3, §4, §5

Huh1 liver cancer cells = assay: Pre-targeted imaging using molecular probe in living cells (365 nm photo-crosslinking, N3-TAMRA click, confocal microscopy); type: cell-based, human
Experimental: In order to determine whether the molecular probe could enter the cell and explore the binding site of the targeted biomacromolecule thereof, the experiment was conducted as follows.
DMEM culture medium, PBS, 4% paraformaldehyde tissue cell fixative, Triton X-100, 5% BSA blocking solution, DAPI staining solution, Cu2SO4, sodium ascorbate, THPTA, N3-TAMRA
• (1) 10^5 Huh1 liver cancer cells were inoculated into glass-bottomed culture dishes and cultured in a 37° C., 5% CO2 incubator until the cells adhered to wall. • (2) DMEM culture medias containing different drug concentrations were added to the culture dishes and incubated overnight in the 37° C., 5% CO2 incubator. • (3) After removing the drug-containing culture mediums, resulting cells were washed with pre-cooled PBS ([…]) for 3 min, placed on ice, and irradiated at 365 nm for 15 min. • (4) Resulting irradiated cells were treated with 1 mL of 4% paraformaldehyde tissue cell fixative for 15 min, the paraformaldehyde tissue cell fixative was removed, and resulting cells were washed with pre-cooled PBS. • (5) Resulting washed cells were permeabilized with 500 μL of 0.1% Triton X-100 in PBS for 10 min, then blocked with 1 mL of 5% BSA blocking solution for 30 min, the blocking solution was removed, and resulting cells were washed with pre-cooled PBS (3×1 mL). • (6) 200 μL of freshly prepared Click reaction solution (20 μM N3-TAMRA, 400 μM Cu2SO4, 400 μM THPTA, 2 mM sodium ascorbate) was added to washed cells obtained in step • (5), incubated under shaking at room temperature for 2 h, the reaction solution was removed, and resulting cells were washed with pre-cooled PBS (3×1 mL) for 3 min. • (7) 200 μL of DAPI staining solution was added to washed cells obtained in step (6) and stained for 6 min, the staining solution was removed, and resulting cells were washed with pre-cooled PBS (3×1 mL) for 3 min, and then imaged with a laser scanning confocal microscope.
According to the above experimental method, the cell images of the β-elemene photoaffinity probe (Compound 2) and a control Compound 6 and β-elemene were measured.

Compound | IC50 times lower than that of β-elemene [1] | IC50 ([1]; HuH-1, Huh1 cells, 48 h, CCK-8) | IC50 ([2]; A549 cells, 48 h, CCK-8) | IC50 ([3]; U87-MG cells, CCK-8) | IC50 times lower than that of β-elemene [2] | IC50 times lower than that of β-elemene [3] | IC50 ([1]; HuH-1, 48 h) | IC50 ([2]; A549, 48 h) | IC50 [3] | intensity of intracellular Rhodamine Red fluorescence of Compound 2 in presence of competitor (Huh1 liver cancer cells; competitor β-elemene (50 μM) with Compound 2 (20 μM), UV irradiation) | competitive binding (Huh1 liver cancer cells; versus Compound 2, conclusion from competition imaging) | intracellular Rhodamine Red fluorescence, with UV irradiation (Huh1 liver cancer cells; 20 μM, with UV irradiation (365 nm, 15 min)) | intracellular Rhodamine Red fluorescence, without UV irradiation (Huh1 liver cancer cells; 20 μM, without UV irradiation) | binding of the probe to the target (Huh1 liver cancer cells; conclusion from competition imaging)
C=C[C@]1(C)CC[C@@H](C(=C)CN2CC3CN(C)CC3C2)C[C@H]1C(=C)C (stereo partly drawn) [Compound 7] | more than 10 times | – | – | – | – | – | 24.3 ± 4.02 µM | 43.4 ± 2.14 µM | 23.3 ± 0.84 µM | – | – | – | – | –
C#CCCC(=O)NCCOCCOCCC(=O)N[C@H](CCC1(C)N=N1)C(=O)NCCN1CCN(CC(=C)[C@@H]2CC[C@@](C)(C=C)[C@H](C(=C)C)C2)CC1 [Compound 2] | more than 10 times | 20.12 ± 0.16 µM | 37.8 ± 3.36 µM | 25.5 ± 4.79 µM | more than 5 times | – | – | – | – | – | – | strong intracellular Rhodamine Red fluorescence | no intracellular Rhodamine Red fluorescence | non-covalent
C#CCCC(=O)NCCOCCOCCC(=O)N[C@H](CCC1(C)N=N1)C(=O)N1CCN(CC(=C)[C@@H]2CC[C@@](C)(C=C)[C@H](C(=C)C)C2)CC1 [Compound 1] | more than 10 times | 18.7 ± 1.54 µM | 29.3 ± 1.63 µM | 38.7 ± 1.91 µM | more than 5 times | – | – | – | – | – | – | – | – | –
C#CCCC(=O)NCCOCCOCCC(=O)N[C@H](CCC1(C)N=N1)C(=O)NCCOCCOCCN1CCN(CC(=C)[C@@H]2CC[C@@](C)(C=C)[C@H](C(=C)C)C2)CC1 [Compound 3] | more than 10 times | 22.8 ± 3.07 µM | 44.6 ± 7.68 µM | 19.3 ± 3.3 µM | – | more than 10 times | – | – | – | – | – | – | – | –

Second part, led by results:

IC50 times lower than that of β-elemene [1] | IC50 ([1]; HuH-1, Huh1 cells, 48 h, CCK-8) | IC50 ([2]; A549 cells, 48 h, CCK-8) | IC50 ([3]; U87-MG cells, CCK-8) | IC50 times lower than that of β-elemene [2] | IC50 times lower than that of β-elemene [3] | Compound | IC50 ([1]; HuH-1, 48 h) | IC50 ([2]; A549, 48 h) | IC50 [3] | intensity of intracellular Rhodamine Red fluorescence of Compound 2 in presence of competitor (Huh1 liver cancer cells; competitor β-elemene (50 μM) with Compound 2 (20 μM), UV irradiation) | competitive binding (Huh1 liver cancer cells; versus Compound 2, conclusion from competition imaging) | intracellular Rhodamine Red fluorescence, with UV irradiation (Huh1 liver cancer cells; 20 μM, with UV irradiation (365 nm, 15 min)) | intracellular Rhodamine Red fluorescence, without UV irradiation (Huh1 liver cancer cells; 20 μM, without UV irradiation) | binding of the probe to the target (Huh1 liver cancer cells; conclusion from competition imaging)
– | 306 ± 31.7 µM | 213 ± 5.29 µM | 218 ± 9.58 µM | – | – | C=C[C@]1(C)CC[C@@H](C(=C)C)C[C@H]1C(=C)C [β-elemene, reference compound] | – | – | – | greatly weakened | can competitively bind to Compound 2 | – | – | –
– | 54.5 ± 3.26 µM | 48.4 ± 1.7 µM | 47.2 ± 2.21 µM | – | – | C#CCCC(=O)NCCOCCOCCC(=O)N[C@H](CCC1(C)N=N1)C(=O)N1CC2CN(CC(=C)[C@@H]3CC[C@@](C)(C=C)[C@H](C(=C)C)C3)CC2C1 (stereo partly drawn) [Compound 4] | – | – | – | – | – | – | – | –
more than 10 times | – | – | – | more than 5 times | more than 10 times | C#CCCC(=O)NCCOCCOCCC(=O)N[C@@H](CCC1(C)N=N1)C(=O)NCCOCCOCCN1CC2CN(CC(=C)[C@@H]3CC[C@@](C)(C=C)[C@H](C(=C)C)C3)CC2C1 (stereo partly drawn) [Compound 5] | 17.1 ± 0.8 µM | 28.4 ± 3.36 µM | 14.1 ± 1.72 µM | – | – | – | – | –
